This is an account of results in paper PMC5789847, “Bismuth antimicrobial drugs serve as broad-spectrum metallo-β-lactamase inhibitors” (Nature Communications, 2018).

Bounds are passed on as bounds.

The subject of one assay is NDM-HK (NDM-1^+). The assay can be described thus: microbe, parasite or virus in culture. The format is cell-based, E. coli. The following applies: for MIC of Bi(III) compound/inhibitor alone / MBC of Bi(III) compound/inhibitor alone / MBC of MER in combination with compound at 32 µg mL^-1 / MIC of MER in combination with compound at 32 µg mL^-1 / FICI: NDM-HK; for FICI: MER + compound, 256 µg mL^-1 set as MIC of Bi(III), 128 for Bi(NAC)3. The procedure: (§1) MIC values were determined by standard broth micro-dilution method (Clinical and Laboratory Standards Institute (CLSI) M100-S20, 2010)[64]. Briefly, bacterial cells were cultured in LB broth overnight at 37 °C at 250 rpm and the OD was measured at 600 nm (OD600). The bacterial density was adjusted to about 1 × 10^6 CFU mL^−1 and checked by CFU counting on agar plates afterwards. Tested antibiotics or Bi(III) compounds were added triplicately into individual wells of flat-bottomed 96-well plates and performed 2-fold serial dilution, followed by addition of prepared bacterial inocula. The plate was then incubated at 37 °C for overnight. […] The MIC was determined as the lowest concentration of a drug that could inhibit the growth of microorganism by both visual reading and OD reading at 600 nm using a microtiter plate reader.
(§2) Resulting growth (or lack of growth) was examined after overnight culturing and the lowest concentration that inhibits 99.9% of the original culture was taken as MBC.
(§3) Other procedures were kept strictly the same. […] Synergism was defined when FICI ≤ 0.5, indifference was defined when FICI > 0.5 and < 4, and antagonism was defined when FICI≥4[65]. […] All of the determinations were performed at least in triplicate on different days.

A further assay concerns NDM-HK. The note with it: metal compound 10, 50, 200 µM with MER at ½MIC (8 μg mL^−1), 24 h.
In a further assay the test system is VIM-BL21 (VIM-2^+). The assay can be described thus: microbe, parasite or virus in culture. Type of assay: cell-based, E. coli. The note with it: VIM-BL21; for FICI: MER + compound, 256 µg mL^-1 set as MIC of Bi(III). On the procedure:
as §1, §2, §3

The next assay concerns the target IMP-4. The assay can be described thus: IC50 enzyme inhibition assay. Type of assay: biochemical. The following applies: IMP-4 50 nM, 1 h preincubation, MER substrate. On the procedure:
(§4) Freshly prepared 50 nM of Zn2-NDM-1, Zn2-VIM-2, or Zn2-IMP-4 in 50 mM HEPES/Na pH 7.0, 100 mM NaCl were first incubated with various concentrations of CBS for 1 h at 25 °C, then mixed with equal volume of 0.2 mM MER. The assay was performed in a 1 cm quartz cuvette using the kinetic mode on a Varian Cary50 UV-visible spectrophotometer at 25 °C. The decrease in absorbance at 300 nm due to ring-opening of MER was monitored every second for a duration of 10 min until the reaction was completed. The initial rates were extracted and calculated from each reaction curves for fitting IC50 curves.

The test system of a further assay is IMP-BL21 (IMP-4^+). The assay can be described thus: microbe, parasite or virus in culture. The note with it: IMP-BL21. Type of assay: cell-based, E. coli. On the procedure: as §1, §2, §3
Assay [1] relates to NDM-K. pneumonia (NDM-1^+). The assay can be described thus: Microdilution MIC/MBC and checkerboard assay. The note with it: NDM-K. pneumonia (NDM-KP). Type of assay: cell-based, Klebsiella pneumonia. On the procedure:
as §1, §2, §3

The subject of assay [2] is NDM-C. freundii (NDM-1^+). The assay can be described thus: Microdilution MIC/MBC and checkerboard assay. Type of assay: cell-based, Citrobacter freundii. The note with it: NDM-C. freundii (NDM-CF). The procedure: as §1, §2, §3
A general note: Broth dilution looks for growth in wells or tubes with falling amounts of substance.

The target in a further assay is VIM-2 (Escherichia coli, UniProt Q5U7L7). Type of assay: biochemical. The note with it: VIM-2 50 nM, 1 h preincubation, MER substrate. On the procedure:
as §4

For the next assay, the target named is NDM-1 (Klebsiella pneumoniae, UniProt C7C422). Type of assay: biochemical. The following applies: NDM-1 50 nM, 1 h preincubation, MER substrate. The procedure:
as §4

Sequence of NDM-1 (C7C422 29-270, looked up, species assumed): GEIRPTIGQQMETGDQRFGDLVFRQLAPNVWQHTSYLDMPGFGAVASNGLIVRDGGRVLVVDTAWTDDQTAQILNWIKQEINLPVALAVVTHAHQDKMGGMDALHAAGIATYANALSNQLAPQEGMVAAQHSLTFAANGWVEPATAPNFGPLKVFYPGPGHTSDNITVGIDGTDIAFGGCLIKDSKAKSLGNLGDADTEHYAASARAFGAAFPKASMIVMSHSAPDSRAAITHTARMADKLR

Consider `O=[N+]([O-])[O-].O=[N+]([O-])[O-].O=[N+]([O-])[O-].[Ga+3]` [gallium nitrate], for which the “MIC of Bi(III) compound/inhibitor alone” value in the assay with NDM-HK (NDM-1^+) is “greater than 256 µg mL^-1”. In the assay with NDM-HK, the “growth inhibition based on optical density (OD) reading” value was above 90%.

For `C[C@H](C[S][Bi+][S]C[C@@H](C)C(=O)N1CCC[C@H]1C(=O)[O-])C(=O)N1CCC[C@H]1C(=O)[O-]` [Bi(CPL)2], in the assay with VIM-BL21 (VIM-2^+), the “MBC of Bi(III) compound alone” value is above 256 µg/mL, the “MBC of MER in combination with compound at 32 µg mL^-1” value (from here on “MBC of MER in combination”) is 1 µg/mL, the “MIC of Bi(III) compound alone” value was above 256 µg/mL and the “MIC of MER in combination with compound at 32 µg mL^-1” value (“MIC of MER in combination” below) came to 0.5 µg/mL. The FICI with VIM-BL21 (VIM-2^+) was determined as 0.078. Further, in the assay with NDM-HK (NDM-1^+), the “MBC of Bi(III) compound/inhibitor alone” value was above 256 µg/mL, the “MBC of MER in combination” value stood at 0.5 µg/mL, the “MIC of Bi(III) compound/inhibitor alone” value is above 256 µg/mL and the “MIC of MER in combination” value came to 0.5 µg/mL. In addition, the FICI with NDM-HK (NDM-1^+) is listed as 0.125.

Regarding `CNC(=C[N+](=O)[O-])NCCSCc1ccc(CN(C)C)o1.O=C([O-])CC(O)(CC(=O)[O-])C(=O)[O-].[Bi+3]` [RBC, ranitidine bismuth citrate], in the assay with NDM-HK (NDM-1^+), the “MBC of Bi(III) compound/inhibitor alone” value is above 256 µg/mL, the “MBC of MER in combination” value turned out to be 4 µg/mL, the “MIC of Bi(III) compound/inhibitor alone” value is above 256 µg/mL and the “MIC of MER in combination” value stood at 2 µg/mL. Also, the FICI with NDM-HK (NDM-1^+) came to 0.250.

On to `NC(CCC(=O)NC(C[S][Bi]([S]CC(NC(=O)CCC(N)C(=O)O)C(=O)NCC(=O)O)[S]CC(NC(=O)CCC(N)C(=O)O)C(=O)NCC(=O)O)C(=O)NCC(=O)O)C(=O)O` (stereo not shown) [Bi(GSH)3], for which, in the assay on NDM-HK (NDM-1^+), the “MBC of Bi(III) compound/inhibitor alone” value was above 256 µg/mL, the “MBC of MER in combination” value was found to be 4 µg/mL, the “MIC of Bi(III) compound/inhibitor alone” value was above 256 µg/mL and the “MIC of MER in combination” value was found to be 2 µg/mL. In addition, the FICI in the assay with NDM-HK (NDM-1^+) is given as 0.250.

The term IC50 denotes the midpoint of a concentration-inhibition curve. A high value points to lower potency. For the compound `CC(C)([S][Bi+][S]C(C)(C)C(N)C(=O)O)C(N)C(=O)O` (stereo not shown) [Bi(PCM)2], on IMP-4, the IC50 was 1000 ± 370 nM. Moreover, in the assay on IMP-BL21 (IMP-4^+), the “MBC of MER in combination” value was determined as 2 µg/mL and the “MIC of MER in combination” value was determined as 1 µg/mL. In the assay with VIM-BL21 (VIM-2^+), the “MBC of Bi(III) compound alone” value is above 256 µg/mL, the “MBC of MER in combination” value worked out at 2 µg/mL, the “MIC of Bi(III) compound alone” value was above 256 µg/mL and the “MIC of MER in combination” value was 1 µg/mL. Besides, the FICI in the assay with VIM-BL21 (VIM-2^+) is recorded as 0.093. Also, in the assay with NDM-HK (NDM-1^+), the “MBC of Bi(III) compound/inhibitor alone” value is above 256 µg/mL, the “MBC of MER in combination” value is 2 µg/mL, the “MIC of Bi(III) compound/inhibitor alone” value was above 256 µg/mL and the “MIC of MER in combination” value was 2 µg/mL. In the assay with NDM-HK (NDM-1^+), the FICI was found to be 0.313. Also, in assay [1], the “MBC of MER in combination” value was 8 µg/mL and the “MIC of MER in combination” value is 2 µg/mL. Moreover, in assay [2], the “MBC of MER in combination” value was 2/2 µg mL^-1 and the “MIC of MER in combination” value is 2/2 µg mL^-1. Moreover, 3710 ± 1190 nM corresponded to half-maximal inhibition on VIM-2 (IC50). For the same compound, inhibition against NDM-1 was half-maximal at 2800 ± 110 nM (IC50).

As to `O=C([O-])CN(CCN(CC(=O)[O-])CC(=O)O)CC(=O)[O-].[Bi+3]` [Bi(EDTA)], in the assay with NDM-HK (NDM-1^+), the “MBC of Bi(III) compound/inhibitor alone” value was above 256 µg/mL, the “MBC of MER in combination” value was found to be 0.5 µg/mL, the “MIC of Bi(III) compound/inhibitor alone” value is above 256 µg/mL and the “MIC of MER in combination” value was determined as 0.5 µg/mL. The FICI in the assay on NDM-HK (NDM-1^+) was determined as 0.094.

For the compound `O=C(O)CN(CCN(CC(=O)O)CC(=O)O)CC(=O)O` [EDTA, ethylenediaminetetraacetate], in the assay on NDM-HK (NDM-1^+), the “MBC of Bi(III) compound/inhibitor alone” value is above 256 µg/mL, the “MBC of MER in combination” value is 0.5 µg/mL, the “MIC of Bi(III) compound/inhibitor alone” value is above 256 µg/mL and the “MIC of MER in combination” value turned out to be 0.5 µg/mL. Also, the FICI with NDM-HK (NDM-1^+) is 0.031.

For the compound `C[C@H](CS)C(=O)N1CCC[C@@H]1C(=O)O` [CPL, D-captopril], in the assay with NDM-HK (NDM-1^+) (Escherichia coli, read-out: MBC of Bi(III) compound/inhibitor alone), the MBC is above 256 µg/mL. For the same compound, the MIC in the assay on NDM-HK (NDM-1^+) (Escherichia coli, read-out: MIC of Bi(III) compound/inhibitor alone) was above 256 µg/mL. In the assay with NDM-HK (NDM-1^+), the “MBC of MER in combination” value is 16 µg/mL, the “MIC of MER in combination” value was 16 µg/mL and the FICI was found to be 2.000.

For the compound `CC(=O)N[C@@H](CS)C(=O)O` [NAC, N-acetyl-cysteine], in the assay with NDM-HK (NDM-1^+), the “MBC of Bi(III) compound/inhibitor alone” value was above 256 µg/mL, the “MBC of MER in combination” value was determined as 8 µg/mL, the “MIC of Bi(III) compound/inhibitor alone” value was above 256 µg/mL and the “MIC of MER in combination” value came to 8 µg/mL. Further, the FICI in the assay with NDM-HK (NDM-1^+) was determined as 0.750.
